Data taken from patent US7767803B2, “Stabilized aptamers to PSMA and their use as prostate cancer therapeutics” (Archemix Corp., priority 2002, dated 2010).
“Also recorded” adds a separate entry of the source. {C6-FAM} = fluorescein (C6-FAM) label; [invdT] = inverted (3'-3') thymidine; d = 2'-deoxy (DNA); m = 2'-O-methyl; r = 2'-OH (RNA); f = 2'-fluoro

How the values were obtained:
LNCaP cells = assay: Cell proliferation assay, chemiluminescent detection of BrdU; type: cell-based; conditions: for effect on cell viability / cell killing (in words): LNCaP cells
Procedure: Effects on LNCaP cell viability were assessed in a cell proliferation assay based on chemiluminescent detection of BrdU described below (Cell Proliferation ELISA, BrdU (Roche, Indianapolis, Ind.). PC-3 cells were used as a control cell line.
Media from LNCaP (PSMA+) or PC3 (PSMA−) cells growing in 15 cm plates was aspirated off then cells were washed with 10 mL 1×PBS. Cells were trypsinized for 30 sec at 37° C. Following trypsinization, 8 mL 10% FBS media was used to quench trypsin. […] Following spin the media was aspirated off and the cell pellet was re-suspended with 10 mL complete media. The cell density was adjusted to 200,000 cells/mL. 50 μl of cells/well was added to collagen coated black 96-well plates (10,000 cells/well). […] Following overnight incubation 25 μl of media, aptamer or antibody was added to each well with the final volume in the well being 100 μl and incubated at 37° C. in 5% CO2 for designated time length. […] After 2 days 20 μl BrdU labeling reagent (100×) is mixed with 2 mL of complete media. […] After incubation, the media was removed, and the assay was completed following the manufacturer's protocol: 200 μl/well FixDenat solution was added to each well and incubated for 30 min at RT. Following removal of FixDenat solution 100 μl anti-BrdU POD Fab fragment solution (Luminol/4-iodophenol) was added to each well and incubated for 90 min at RT. After incubation anti-BrdU POD solution was removed and plates were washed with 200 μl/well of washing solution three times with 5 min RT incubations. 100 μl of substrate solution was added to each well and cells were incubated for 3 min at RT in the dark. The plates were read using a luminescence program with a 1 sec count on a Packard TopCount Microplate Scintillation and Luminescence Counter.

ECD PSMA = biological target: T1, ECD PSMA (Homo sapiens, UniProt Q04609); assay: Dot blot binding assay (nitrocellulose filtration)
T1 construct: N-terminal linker […]; made in house; host or cells: 293 Freestyle cells, pSecTag2B vector
T1 sequence (Q04609 with tags, fused parts or gaps): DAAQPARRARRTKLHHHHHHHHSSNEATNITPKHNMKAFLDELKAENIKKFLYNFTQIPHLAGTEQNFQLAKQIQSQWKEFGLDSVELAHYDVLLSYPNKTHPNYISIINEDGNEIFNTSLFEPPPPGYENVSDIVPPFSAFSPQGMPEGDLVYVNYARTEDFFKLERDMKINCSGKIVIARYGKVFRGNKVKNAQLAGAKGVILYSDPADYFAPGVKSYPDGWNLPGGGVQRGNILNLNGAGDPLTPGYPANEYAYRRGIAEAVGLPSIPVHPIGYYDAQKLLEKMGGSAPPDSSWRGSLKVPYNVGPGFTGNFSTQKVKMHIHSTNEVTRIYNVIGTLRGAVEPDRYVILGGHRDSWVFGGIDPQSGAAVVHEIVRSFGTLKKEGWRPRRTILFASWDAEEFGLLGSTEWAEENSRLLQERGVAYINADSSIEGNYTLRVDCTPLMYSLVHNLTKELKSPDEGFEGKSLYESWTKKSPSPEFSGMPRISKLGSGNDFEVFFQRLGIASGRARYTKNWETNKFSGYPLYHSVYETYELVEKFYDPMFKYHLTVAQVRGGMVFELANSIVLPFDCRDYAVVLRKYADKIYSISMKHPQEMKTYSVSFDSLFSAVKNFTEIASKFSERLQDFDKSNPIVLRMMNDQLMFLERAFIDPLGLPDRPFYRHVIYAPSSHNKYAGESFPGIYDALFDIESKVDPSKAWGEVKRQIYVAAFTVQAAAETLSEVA
Procedure: The binding reactions are then analyzed by nitrocellulose filtration using a Minifold I dot-blot, 96-well vacuum filtration manifold (Schleicher & Schuell, Keene, N.H.) (dot blot binding assay). A three-layer filtration medium is used, consisting (from top to bottom) of Protran nitrocellolose (Schleicher & Schuell), Hybond-P nylon (Amersham Biosciences, Piscataway, N.J.) and GB002 gel blot paper (Schleicher & Schuell). The nitrocellulose layer, which selectively binds protein over nucleic acid, preferentially retains the anti-PSMA aptamer in complex with a protein ligand, while non-complexed anti-PSMA aptamer passes through the nitrocellulose and adhered to the nylon (the gel blot paper is included as a supporting medium for the other filters). Following filtration, the filter layers are separated, dried and exposed on a phosphor screen (Amersham Biosciences) and quantified using a Storm 860 Phosphorimager® blot imaging system (Amersham Biosciences) and KD values are calculated by fitting the equation y=(max/(1+K/protein))+yint.
Dot Blot Binding Analysis. […]
In order to identify the core structural elements required for ARC955 binding to PSMA, the 3′-boundaries of the clone was determined through alkaline hydrolysis. […] The KD and maximum % bound for the 3 minimized constructs with the overall highest PSMA affinity, as determined by a dot blot binding assay, are listed in Table 4. […]

LNCaP cells (PSMA+) = assay: LNCaP FACS assay with fluorescein-labeled aptamers; type: cell-based; conditions: FACS analysis
From the text: The parent A9 aptamer sequence (SEQ ID NO 168) is predicted by the MFOLD algorithm implemented in the RNAStructure program v. 4.11 to fold into a partially mismatched hairpin that encompasses almost the entire molecule. A series of truncated constructs were designed, in which self-pairing nucleotides from the 5′- and 3′-ends were simultaneously removed, chemically synthesized using conventional solid-phase phosphoramidite-based synthesis, and tested. In the design of some of the truncated A9 aptamers, see e.g. ARC591, additional bases were added to the 3′ and 5′ ends of the truncate, where the bases added to the 5′ end were capable of forming Watson-Crick base pairs with those added to the 3′ end thereby increasing the length of stem structure. Truncated aptamers were 5′-labeled with fluorescein and tested for binding in to LNCaP cells (PSMA+) in the FACS assay described below. PC-3 cells (PSMA−) were used as a control cell line. The sequences of the truncated A9 aptamers designed are listed below in Table 6 below.
To accomplish 5′-fluorescein labeling, aptamers were synthesized with a 5′-amine and then modified post-solid phase synthesis. The required aptamer was dissolved to a concentration of ˜10-50 mg/mL in 25 mM phosphate buffer, pH 7.4. The small molecule, NHS ester of fluorescein, was dissolved to a concentration of 10 mg/mL in DMSO. 1.5 Molar equivalents were added to the aptamer and the solution vortexed for ˜15 seconds. The reaction was allowed to proceed in the dark at room temperature for 1 hour and then a 5 μL aliquot was withdrawn, diluted with water and analyzed by HPLC. Additional equivalents of the small molecule were added until the reaction was complete by HPLC. Excess small molecules were removed by gel filtration.
To prepare aptamers for the FACS assay, PSMA aptamers were serially diluted (0-1 uM) in FACS buffer (1×DPBS w/Ca^++/Mg^++ (Gibco, Carlsbad, Calif.) supplemented with 10 mg/mL salmon sperm DNA & 0.2% Na Azide), in a V-bottom 96 well plate, at the concentrations to be tested. LNCaP and PC-3 cells (ATCC, Manassas, Va.) were harvested with trypsin, and 200,000 cells/well were counted, washed once with 1×DPBS (with Ca^++ and Mg^++) and resuspended in 200 μl of FACS Buffer. The 200 μl of cells in FACS buffer were added to individual wells of a new 96 well plate, pelleted by centrifugation (1300 rpm for 5 minutes), and resuspended in 100 μl of the appropriate concentration of diluted aptamer. FACS buffer, c-PSMA antibody (3C6) (Northwest Biotherapeutics, Bothell, Wash., Cat #: 60-5002) and an irrelevant fluorescein isothiocyanate (“FITC”) mouse IgG1 isotype control antibody (BD Pharmingen, San Diego, Calif., Cat#: 554679) were used as controls. The wells of aptamer/cell mixture were incubated at room temperature for 20-30 minutes. […]

PSMA NAALADase activity = PSMA NAALADase activity (Homo sapiens, UniProt Q04609); assay: NAALADase inhibition assay; type: biochemical; conditions: relative to parent aptamer
Chain of PSMA NAALADase activity (Q04609 with tags, fused parts or gaps limits assumed): as the sequence (Q04609 with tags, fused parts or gaps) above
Procedure: These point mutant constructs were assessed for activity in terms of inhibition of PSMA NAALADase activity. The NAALADase assay was performed in 96 well format. PSMA aptamers were serially diluted in 1× reaction buffer (40 mM Tris-HCl, pH 7.4, 0.1 mM ZnSO4, 0.1 mg/mL BSA) in a standard 96 well plate to be tested at a final concentration range from 30 pM to 1 μM. The enzyme was prepared by diluting 30 μL of 100 nM PSMA into 8 mL of reaction buffer, and kept cool on ice. The substrate was prepared by adding 19 μl of NAAG [Glutamate-3,4-^3H], 50.8 Ci/mmol, 19.7 μM (Perkin-Elmer, Wellesley, Mass., NET1082) into 2.2 mL of reaction buffer.
Following preparation of all reagents, 4 μl of each serially diluted aptamer was added to a separate 96 well plate (the reaction plate). 76 μl of diluted enzyme was added to the corresponding wells containing aptamer. 80 μl of reaction buffer was added to one column of wells to serve as a background control. The diluted substrate and reaction plate were then moved to a room at 37° C. and allowed to equilibrate for 10 minutes. […]
To separate the cleavage products, […] and Glutamate, from the substrate, an AG 1-×8, 200-400 mesh, formate resin (BioRad, Hercules, Calif., # 140-1454) was used. […] The plate was sealed and read using a Packard Topcount Microplate Scintillation Counter. […]

## O=c1c(-c2ccc(O)cc2)coc2cc(O)cc(O)c12 [Genistein, reference compound]
LNCaP cells; positive control, 25 μM dose
  cytotoxicity at 25 μM: partial inhibition
LNCaP cells; positive control, 150 μM
  cytotoxicity at 150 μM: complete cell killing

## AGAGGAGAGAACGUUCUACUAUGGGUGGCUGGGAGGGG (2'-O-methyl at ACU, RNA at G, backbone not given here) [ARC1091, rGmH minimer of ARC955]
ECD PSMA
  PSMA binding (in words): maintains the full binding capacity

## C6 FAM-GGAGGACCGAAAAAGACCUGACUUCUAUACUAAGUCUACGUUCCUCC-3T (GGAGGACCGAAAAAGACCUGACUUCUAUACUAAGUCUACGUUCCUCCT; 5' FAM label and 3' inverted dT, sugar chemistry not clearly assigned, further chemistry not given here) [ARC710, fluorescently labeled A9 minimer]
LNCaP cells (PSMA+)
  competition with fluorescently labeled anti-PSMA antibody for binding to the surface of LNCaP cells: effectively competes

## CUACUACACAUGGGUCGGGUGAGUGGCAAAGGAAUAGUAG (2'-O-methyl at ACU, RNA at G, backbone not given here) [ARC725]
ECD PSMA
  PSMA binding (in words): no intrinsic PSMA binding; also recorded: not to exhibit PSMA binding

## UAAUACGACUCACUAUAGGGAGAGGAGAGAACGUUCUACUAUGGGUGGCUGGGAGGGGAAGAGGGAGUAGGUCGAUCGAUCGAUCAUCGAUG [ARC955]
LNCaP cells
  effect on cell viability / cell killing (in words): no intrinsic effect on cell viability at any concentration

## c6 fam-mCmGmGmAfCfCmGAAAAmAmGmAmCfCfUGAfCfUfUfCfUAfUAfCfUAAmGmUmCmUAfCmGfUmUmCmCmG-3T (CGGACCGAAAAAGACCUGACUUCUAUACUAAGUCUACGUUCCG; sugars from the 5' end mmmmffmrrrrmmmmffrrfffffrfrffrrmmmmrfmfmmmm, [invdT] at 3' end, 5' {C6-FAM}, backbone not given here) [ARC711, fluorescently labeled A9 minimer]
LNCaP cells (PSMA+)
  competition with fluorescently labeled anti-PSMA antibody for binding to the surface of LNCaP cells: effectively competes

## mCmGmGmACmGAAAAmAmGmAmCfCfUGAfCfUfUfCfUAfUAfCfUAAmGmUmCmUAfCmGfUmUmCmCmG-3T [ARC942]
LNCaP cells
  effect on cell viability / cell killing (in words): no intrinsic effect on cell viability at any concentration

## mCmGmGmAfCfCmGdAdAfCmAmAmGmGmCfCfU-s-dGmAfCfUfUfCfUmAfUmAfCfUdAmAmGmCmCmUmAfCmGfUmUmCmCmG-3T (CGGACCGAACAAGGCCUGACUUCUAUACUAAGCCUACGUUCCG; sugars from the 5' end mmmmffmddfmmmmmffdmfffffmfmffdmmmmmmfmfmmmm, [invdT] at 3' end, backbone not given here; internal -s- element between two units) [ARC1725]
PSMA NAALADase activity
  NAALADase inhibition activity (in words): retained full activity
